5 molecules from patent US8465912B2, “Methods for the identification of agents that inhibit mesenchymal-like tumor cells or their formation” (OSI Pharmaceuticals, LLC, priority 2009, dated 2013) can be followed below.

Common to all, as to type: cell-based, human
In test [1] the test system is H1650 cells. Description: Pharmacological inhibition of ligand-induced EMT (Western blot, morphology). The conditions noted are these: MEK inhibitor 1 1 μM, LY294002 10 μM, JAK inhibitor 1 0.25 μM. On the procedure: Supernatents were micro-centrifuged at max speed, 4° C. for 10 minutes. […] SDS PAGE was run using a Bis-Tris gel system (Invitrogen NuPAGE) with MOPS buffer (Invitrogen NP0001), transferred onto nitrocellulose using the iBLOT system (Invitrogen) and blocked in PBS-T (0.1% Tween 20), 5% non-fat milk or BSA in guidance with primary Ab supplier requirements. […] Secondary HRP labeled antibodies used were: anti Rabbit IgG HRP (Amersham NA934) 1:5000 dilution; anti Mouse IgG HRP (Sigma A2304) 1:2000 dilution. Membranes were visualized using the Supersignal ELISA Femto Maximum Sensitivity Substrate (Pierce).
Cells were treated with inhibitor 30 minutes prior to ligand stimulation. Medium, inhibitor and ligand were refreshed on experimental day 3 to 4. Cells were photographed and lysed in RIPA buffer on day 7 for Western blotting.
To determine what signaling pathways are important for EMT in this model, cells were stimulated for 7 days with OSM, HGF+OSM or OSM+TGFβ in the presence of inhibitors to MEK, PI3K and JAK, since these pathways are established downstream effectors of these ligands. After 7 days, we photographed the cells to show morphology and harvested the cells to analyze markers by immunoblot (FIG. 6).
In general terms: In western blotting, separated proteins are transferred to a membrane and probed.

Test [2] deals with H1650 cells. Description: Induction of EMT by growth factors and cytokines in 2D culture (immunoblot, morphology, confocal). The conditions noted are these: H1650 2D; for E-cadherin localization by confocal microscopy: 7 days ligand, untreated cells show membrane E-cadherin; for Induction of EMT (E-cadherin, vimentin, morphology): 7 days, HGF, EGF, OSM 100 ng/ml, TGFβ1 10 ng/ml, TNFα 25 ng/ml. On the procedure:
(§1) The human cell line, H1650 was cultured in […] containing 10% FBS, 2 mM L-Glutamine, and 1 mM sodium pyruvate, at 37° C., 5% CO2. Growth factor and cytokine induced EMT was monitored over 7 days. Growth factor and cytokines were obtained from commercial sources and used as follows: HGF (Hepatocyte growth factor) at 100 ng/ml, EGF (Epidermal Growth Factor) at 100 ng/ml, OSM (Oncostatin M) at 100 ng/ml, TGFβ1 (Transforming growth factor, beta 1) at 10 ng/ml, and TNFα (Tumor necrosis factor alpha) at 25 ng/ml.
Cells were harvested by washing once with PBS, and lysing on ice for 10 minutes with scraping (using a Cell Lifter, Corning Inc. #3008) in ice cold RIPA buffer (Sigma R0278) containing Protease inhibitor (Sigma P8340), Phosphatase inhibitors (Sigma P2850, P5726) and 200 μM Sodium Vanadate. Supernatents were micro-centrifuged at max speed, 4° C. for 10 minutes. Protein content was quantitated using the BCA method (Pierce #23225) and samples were normalized to total protein in Laemli buffer and heated at 100° C. for 10 minutes. SDS PAGE was run using a Bis-Tris gel system (Invitrogen NuPAGE) with MOPS buffer (Invitrogen NP0001), transferred onto nitrocellulose using the iBLOT system (Invitrogen) and blocked in PBS-T (0.1% Tween 20), 5% non-fat milk or BSA in guidance with primary Ab supplier requirements. All primary antibodies were incubated overnight at 4° C. in PBS-T (0.1% Tween 20) in either 5% non-fat milk or BSA, diluted to the following working dilutions: anti E Cadherin (Santa Cruz #sc-21791) 1:500 dilution; anti Vimentin (BD Biosciences #550513) 1:2000 dilution;); 1:1000 dilution; anti β-Actin (Sigma, A5441) 1:10,000 dilution. Secondary HRP labeled antibodies used were: anti Rabbit IgG HRP (Amersham NA934) 1:5000 dilution; anti Mouse IgG HRP (Sigma A2304) 1:2000 dilution. Membranes were visualized using the Supersignal ELISA Femto Maximum Sensitivity Substrate (Pierce).
Cells were fixed in 4% paraformaldehyde (Electron Microscopy Sciences #15710)/PBS (Gibco#14190) for 10 minutes at room temperature, washed with PBS and permeabilized with 0.1% Triton X100 (Sigma P1379) in PBS for 10 minutes at room temp. Cells were blocked with 3% BSA/PBS for at least 15 minutes then incubated with primary antibody diluted in blocking buffer for a minimum of two hours at room temperature. Anti E-Cadherin was used at a 1:75 dilution and anti Vimentin (Millipore #AB5733) was used at a 1:2000 dilution. Cells were washed, incubated with fluorescently-labeled secondary antibodies for one hour, followed by a 5 minute TO-PRO3 nuclear counterstain (Invitrogen #T3605) at room temperature, washed and mounted on slides with Pro-Long Gold anti-fade reagent (Invitrogen #P36934). Secondary fluorescent antibodies used were: anti mouse 488 nm (Invitrogen #A11029) 1:600 dilution; anti chicken TRITC (Chemicon #AP194R) 1:50 dilution. Stained cells were captured on a Leica DMRXE microscope/SP2 scanner using Leica Confocal Software (LCS).
The ability of cell lines to undergo epithelial to mesenchymal transition (EMT) was investigated using different extracellular ligand drivers. A panel of NSCLC, pancreatic, and breast cancer cell lines were screened by treatment of cells for 7 days in presence of respective ligands, either singly or in combination. Initial screening determined the ability of the ligand to cause morphology change, to down-regulate the epithelial marker, E-cadherin or to up-regulate a mesenchymal marker such as vimentin. Potential EMT cell models should up-regulate a mesenchymal marker and display morphology change. More robust models would show a down-regulation of E-cadherin expression.

Test [3] has as its system H1650 cells. Description: Doubling time of ligand-treated H1650 cells. To be noted: 7 days ligand, doubling time over following two weeks, versus untreated. On the procedure:
as §1
Cells were plated and treated with ligand for 7 days. On day 7, cells were counted and re-plated on 6 cm cell culture dishes. On days 3, 5, 7, 10 and 12, cells were trypsinized and counted to determine the total number of cells in the dish, in duplicate. Doubling time was calculated using the multiple time point method on the website www.doubling-time.com.

The test system of test [4] is H1650 cells. Kind of test: qPCR of EMT gene changes in response to ligand treatment. The conditions noted are these: 7 days ligand, qPCR normalized to GAPDH and untreated control. As to the method: as §1
Cells were plated and treated with ligand for 7 days. At the time of harvest, cells were trypsinized and snap frozen for later use. Total RNA was isolated using RNAqueous-4 PCR Kit (Ambion, AM1914). Samples were DNase treated using the Turbo DNA-Free kit (Ambion, AM1907) and reverse transcribed using Superscript III (Invitrogen, 18080-044) for qPCR analysis. Taqman primers and Locked-Nucleic Acid probes were designed using ProbeFinder software (Universal Probe library, Roche). For mRNA analysis, real time PCR was performed using the ABI 7900HT series PCR machine. Thermocycle conditions were as follows: 50° C. for 2 minutes, 95° C. for 10 minutes, 95° C. for 15 seconds, 50° C. for 10 seconds, 60° C. for 1 minute. Data was collected over 45 cycles and then normalized to GAPDH and further normalized to the untreated control sample.
Background: In qPCR the cycle at which signal appears reflects the starting amount.

With `CC(C)(C)c1nc2c3cc[nH]c(=O)c3c3cc(F)ccc3c2[nH]1` [JAK inhibitor 1], the “Effect on HGF+OSM-induced EMT” value in test [1] (7 days HGF+OSM) is listed as “partial”. Also, the “Effect on OSM+TGFβ-induced EMT” value in test [1] (7 days OSM+TGFβ) is “near complete block”. In addition, the “Effect on OSM-induced EMT” value in test [1] (7 days OSM) is recorded as “near complete block”. Also, the “Effect on EMT in all three ligand models (OSM, HGF+OSM, OSM+TGFβ)” value in test [1] (7 days, immunoblot and morphology) is given as “blocked EMT to varying degrees”.
As for “EGF: Epidermal Growth Factor, commercial protein ligand used at 100 ng/ml”, in test [2], the “E-cadherin localization by confocal microscopy” value is given as “absence of E-cadherin or mislocalization of E-cadherin to the cytoplasm” and the “Induction of EMT (E-cadherin, vimentin, morphology)” value was “partial EMT”.
As to “HGF: Hepatocyte growth factor, commercial protein ligand used at 100 ng/ml to induce EMT in H1650 cells”, the “Change in doubling time” value in test [3] was “modest decrease”. In test [2], the “E-cadherin localization by confocal microscopy” value is listed as “absence of E-cadherin or mislocalization of E-cadherin to the cytoplasm” and the “Induction of EMT (E-cadherin, vimentin, morphology)” value is listed as “partial EMT”. In test [4], the ACTN1 gene change result is given as “NC (Fold changes less than 3 are reported as NC)”, the CDH1 gene change entry was “NC (Fold changes less than 3 are reported as NC)”, the CDH2 gene change result was “NC (Fold changes less than 3 are reported as NC)” and the CLDN3 gene change result is recorded as “NC (Fold changes less than 3 are reported as NC)”. Further, in test [4], the ERBB3 gene change result is “NC (Fold changes less than 3 are reported as NC)”, the ITGB3 gene change result is “NC (Fold changes less than 3 are reported as NC)”, the MTA3 gene change entry is recorded as “NC (Fold changes less than 3 are reported as NC)” and the OCLN gene change result is “NC (Fold changes less than 3 are reported as NC)”. Also, in test [4], the PLAUR gene change entry was “NC (Fold changes less than 3 are reported as NC)”, the SNAI1 gene change entry is “NC (Fold changes less than 3 are reported as NC)”, the SNAI2 gene change is given as 6.43 fold change and the SPARC gene change entry is recorded as “NC (Fold changes less than 3 are reported as NC)”. For the same molecule, in test [4], the TJP3 gene change result was “NC (Fold changes less than 3 are reported as NC)”, the TWIST1 gene change result is listed as “NC (Fold changes less than 3 are reported as NC)”, the VCAN gene change turned out to be 6.71 fold change and the VIM gene change was 4.92 fold change. In test [4], the ZEB1 gene change result is on record as “NC (Fold changes less than 3 are reported as NC)” and the ZEB2 gene change result is “NC (Fold changes less than 3 are reported as NC)”.
Regarding “TGFβ: Transforming growth factor, beta 1, used at 10 ng/ml”, in test [3], the “Change in doubling time” value is “no effect”. Further, in test [2], the “Induction of EMT (E-cadherin, vimentin, morphology)” value is recorded as “do not stimulate EMT by themselves”. In addition, in test [4], the CDH1 gene change result was “NC (Fold changes less than 3 are reported as NC)”, the CDH2 gene change result is “NC (Fold changes less than 3 are reported as NC)”, the CLDN3 gene change entry was “NC (Fold changes less than 3 are reported as NC)” and the ERBB3 gene change result is reported as “NC (Fold changes less than 3 are reported as NC)”. Further, in test [4], the ITGB3 gene change entry is on record as “NC (Fold changes less than 3 are reported as NC)”, the MTA3 gene change result was “NC (Fold changes less than 3 are reported as NC)”, the OCLN gene change result is recorded as “NC (Fold changes less than 3 are reported as NC)” and the PLAUR gene change result is “NC (Fold changes less than 3 are reported as NC)”. In test [4], the SNAI1 gene change result is on record as “NC (Fold changes less than 3 are reported as NC)”, the SNAI2 gene change came to 4.9 fold change, the SPARC gene change entry is listed as “NC (Fold changes less than 3 are reported as NC)” and the TJP3 gene change entry is given as “NC (Fold changes less than 3 are reported as NC)”. Besides, in test [4], the TWIST1 gene change result is reported as “NC (Fold changes less than 3 are reported as NC)”, the VCAN gene change amounted to 5.04 fold change, the VIM gene change is given as 3.99 fold change and the ZEB1 gene change result is “NC (Fold changes less than 3 are reported as NC)”. The ZEB2 gene change result in test [4] was “NC (Fold changes less than 3 are reported as NC)”.
On to TNFα, for which the “Induction of EMT (E-cadherin, vimentin, morphology)” value in test [2] was “do not stimulate EMT by themselves”.
